Measured values: ChEMBL document CHEMBL3046374, “Preparation of 5-chloro-6-fluoroimidacloprid analogs and comparison of their insecticidal activity in a laboratory test with a 6-chloro-5-fluoro analog” (J Pestic Sci, 2007)

Tested on: not listed separately
Assay: Lipophilicity, logP of the compound at 25 degC
Format: physicochemical
Details: octanol/water

| SMILES | logP |
| --- | --- |
| O=[N+]([O-])/N=C1/NCCN1Cc1cnc(F)c(Cl)c1 | 0.98 |
| O=[N+]([O-])/N=C1/NCCN1Cc1cnc(Cl)c(F)c1 [5-FLUOROIMIDACLOPRID] | 0.79 |

Tested on: Nilaparvata lugens
Assay: Insecticidal activity against Nilaparvata lugens (brown planthopper) second or third-instar nymphs fed on compound pre-treated rice seedlings assessed as insect mortality measured 5 days post compound treatment
Format: functional
Details: not given

| SMILES | LD90 |
| --- | --- |
| N#C/N=C1/OCCN1Cc1cnc(F)c(Cl)c1 | >200 ppm |
| N#C/N=C1/SCCN1Cc1cnc(F)c(Cl)c1 | >200 ppm |
| N#C/N=C1/NCCN1Cc1cnc(F)c(Cl)c1 | >200 ppm |
| O=[N+]([O-])/N=C1/NCCN1Cc1cnc(F)c(Cl)c1 | 50 ppm |
| O=[N+]([O-])/N=C1/SCCN1Cc1cnc(F)c(Cl)c1 | >200 ppm |
| O=[N+]([O-])/N=C1/NCCN1Cc1cnc(Cl)c(F)c1 [5-FLUOROIMIDACLOPRID] | 0.2 ppm |
| O=[N+]([O-])/N=C1\NCCN1Cc1ccc(Cl)nc1 [IMIDACLOPRID] | 0.2 ppm |

Tested on: Spodoptera litura
Assay: Insecticidal activity against Spodoptera litura second-instar larvae fed on compound pre-treated cabbage leaves assessed as insect mortality measured 5 days post compound treatment
Format: functional
Details: not given

| SMILES | LD90 |
| --- | --- |
| N#C/N=C1/OCCN1Cc1cnc(F)c(Cl)c1 | >200 ppm |
| N#C/N=C1/SCCN1Cc1cnc(F)c(Cl)c1 | >200 ppm |
| N#C/N=C1/NCCN1Cc1cnc(F)c(Cl)c1 | >200 ppm |
| O=[N+]([O-])/N=C1/NCCN1Cc1cnc(F)c(Cl)c1 | >200 ppm |
| O=[N+]([O-])/N=C1/SCCN1Cc1cnc(F)c(Cl)c1 | >200 ppm |
| O=[N+]([O-])/N=C1/NCCN1Cc1cnc(Cl)c(F)c1 [5-FLUOROIMIDACLOPRID] | >50 ppm |
| O=[N+]([O-])/N=C1\NCCN1Cc1ccc(Cl)nc1 [IMIDACLOPRID] | >50 ppm |

Tested on: Myzus persicae
Assay: Insecticidal activity against Myzus persicae (green peach aphid) first-instar nymphs fed on compound pre-treated egg plant seedlings or Japanese radish leaves assessed as insect mortality measured 5 days post compound treatment
Format: functional
Details: not given

| SMILES | LD90 |
| --- | --- |
| N#C/N=C1/OCCN1Cc1cnc(F)c(Cl)c1 | 200 ppm |
| N#C/N=C1/SCCN1Cc1cnc(F)c(Cl)c1 | 50 ppm |
| N#C/N=C1/NCCN1Cc1cnc(F)c(Cl)c1 | 200 ppm |
| O=[N+]([O-])/N=C1/NCCN1Cc1cnc(F)c(Cl)c1 | 200 ppm |
| O=[N+]([O-])/N=C1/SCCN1Cc1cnc(F)c(Cl)c1 | >200 ppm |
| O=[N+]([O-])/N=C1/NCCN1Cc1cnc(Cl)c(F)c1 [5-FLUOROIMIDACLOPRID] | 0.2 ppm |
| O=[N+]([O-])/N=C1\NCCN1Cc1ccc(Cl)nc1 [IMIDACLOPRID] | 0.2 ppm |
